Test results as given in PMC12349723, “Computationally accelerated identification of P-glycoprotein inhibitors” (PLOS One, 2025).
Several values for one entry are separate records, joined by “and”; a condition that tells them apart may be missing. Equal entries are not always repeated. Where two headings read alike, the source gives them in different places.

What was measured:
Format in all cases: cell-based, human
A2780 cells = experiment: MTT viability assay, parental A2780 cells, with or without PTX; conditions: for Mean % Survival / % Survival (individual sample): A2780 cells; for % Survival (individual sample): single samples
Summary of the method: (§1)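 A2780 and doxorubicin-selected (100 nM) P-gp-overexpressing A2780-ADR cells, 3,000/well in RPMI + 10% FBS, were exposed to compounds, with or without chemotherapeutic, for 48 h at 37 °C. MTT read at 570 nm after 4 h; survival expressed as percent of vehicle, or vehicle-plus-chemotherapeutic, control.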

A2780-ADR cells = experiment: MTT viability assay, reversal of MDR in P-gp overexpressing A2780-ADR cells
Summary of the method: as §1

DU145-TXR cells = experiment: MTT viability assay, reversal of MDR (re-sensitization to paclitaxel) in P-gp overexpressing DU145-TXR cells; conditions: for % Survival, mean / % Survival: 15 µM compound + 500 nM PTX (Paclitaxel, Taxol); for % Survival, mean / % Survival / viability at 15 µM: DU145-TXR; for viability at 15 µM: Homo sapiens, 15 µM Compound Alone; for Re-sensitization of DU145-TXR cells to PTX (reversal of MDR): 15 µM compound with or without 500 nM PTX, 48 h, MTT, re-sensitization = 30% or greater decrease in cell viability
Summary of the method: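 MTT viability testing was done on P-gp overexpressing, multidrug resistant DU145-TXR human prostate cancer cells. They were kept in 10 nM paclitaxel and seeded at 3,000 cells per well in complete RPMI. Cells were exposed to compound, with or without paclitaxel, for 48 hours. MTT was then added for 4 hours, formazan was dissolved in DMSO, and absorbance was read at 570 nm. Survival was expressed relative to control-treated cells.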

[1] = mean of 8 samples, read-out: % Survival, mean
[2] = trial 1, sample 1, read-out: % Survival
[3] = trial 1, sample 2, read-out: % Survival
[4] = trial 1, sample 3, read-out: % Survival
[5] = trial 1, sample 4, read-out: % Survival
[6] = trial 2, sample 1, read-out: % Survival
[7] = trial 2, sample 2, read-out: % Survival
[8] = trial 2, sample 3, read-out: % Survival
[9] = trial 2, sample 4, read-out: % Survival
[10] = 15 µM compound with or without 500 nM PTX, 48 h, MTT
[11] = 15 µM compound + 500 nM PTX, mean of 8 or 12 samples
[12] = Homo sapiens, A2780, A2780 cells, 15 µM compound alone, mean of 8 or 12 samples, read-out: Mean % Survival
[13] = A2780-ADR cells, 15 µM compound + 500 nM PTX, mean of 12 samples
[14] = A2780-ADR cells, 15 µM compound alone, single samples (trials 1-3, samples 1-4)
[15] = Homo sapiens, A2780 ADR, A2780-ADR cells, 15 µM compound alone, mean of 12 samples, read-out: Mean % Survival

Row | Structure (SMILES) | % Survival, mean (DU145-TXR cells; mean of 8 samples) | % Survival (DU145-TXR cells; trial 1, sample 1) | % Survival (DU145-TXR cells; trial 1, sample 2) | % Survival (DU145-TXR cells; trial 1, sample 3) | % Survival (DU145-TXR cells; trial 1, sample 4) | % Survival (DU145-TXR cells; trial 2, sample 1) | % Survival (DU145-TXR cells; trial 2, sample 2) | % Survival (DU145-TXR cells; trial 2, sample 3) | % Survival (DU145-TXR cells; trial 2, sample 4) | viability at 15 µM (DU145-TXR cells; [1]) | viability at 15 µM (DU145-TXR cells; [2]) | viability at 15 µM (DU145-TXR cells; [3]) | viability at 15 µM (DU145-TXR cells; [4]) | viability at 15 µM (DU145-TXR cells; [5]) | viability at 15 µM (DU145-TXR cells; [6]) | viability at 15 µM (DU145-TXR cells; [7]) | viability at 15 µM (DU145-TXR cells; [8]) | viability at 15 µM (DU145-TXR cells; [9]) | Mean % Survival (A2780 cells; [11]) | % Survival (individual sample) (A2780 cells; 15 µM compound + 500 nM PTX) | further results
1 | COc1cc2c(cc1OC)CN(CCc1ccc(NC(=O)c3cc(OC)c(OC)cc3NC(=O)c3cnc4ccccc4c3)cc1)CC2 [Tariquidar, reference compound] | 13.1% | 11% | 10% | 21% | 13% | 20% | 13% | 9% | 7.57% | 101% | 139% | 94% | 96% | 95% | 80% | 106% | 79% | 123% | – | – | Mean % Survival (A2780 cells; 1 µM compound + 500 nM PTX, mean of 12 samples): 17.8%; % Survival (individual sample) (A2780 cells; 1 µM compound + 500 nM PTX, listed as TQR): 12%; viability at 1 µM (A2780 cells; Homo sapiens, A2780, A2780 cells, 1 µM compound alone, mean of 12 samples, read-out: Mean % Survival): 106%; Mean % Survival (A2780-ADR cells; A2780-ADR cells, 1 µM compound + 500 nM PTX, mean of 12 samples): 55.3%; % Survival (individual sample) (A2780-ADR cells; A2780-ADR cells, 1 µM compound + 500 nM PTX, single samples (trials 1-3, samples 1-4), listed as TQR): 58% and 59%; viability at 1 µM (A2780-ADR cells; Homo sapiens, A2780 ADR, A2780-ADR cells, 1 µM compound alone, mean of 12 samples, read-out: Mean % Survival): 91%
2 | Cc1onc(-c2ccccc2)c1-c1nnc(Cn2cnc3ccccc3c2=O)o1 [Compound 111, Cc1onc(c1-c1nnc(Cn2cnc3ccccc3c2=O)o1)-c1ccccc1] | 41.1% | 30% | 34% | 44% | 39% | 51% | 48% | 46% | 38% | 102% | 111% | 93% | 90% | 94% | 106% | 115% | 108% | 103% | 14.4% | 13% | Increase of PTX toxicity against parental A2780 cells (A2780 cells; [10]): did not greatly increase the toxicity of PTX against the parental A2780 cells; % Survival (individual sample) (A2780 cells; 15 µM compound alone): 102%; viability at 15 µM (A2780 cells; [12]): 94%; Reversal of MDR in A2780-ADR cells (A2780-ADR cells; [10]): reversed MDR in A2780-ADR cells; Mean % Survival (A2780-ADR cells; [13]): 47.6%; % Survival (individual sample) (A2780-ADR cells; A2780-ADR cells, 15 µM compound + 500 nM PTX, single samples (trials 1-3, samples 1-4)): 52% and 38%; % Survival (individual sample) (A2780-ADR cells; [14]): 95% and 98%; viability at 15 µM (A2780-ADR cells; [15]): 97.3%; Re-sensitization of DU145-TXR cells to PTX (reversal of MDR) (DU145-TXR cells): re-sensitized DU145-TXR cells to PTX
3 | Cn1cnnc1SCc1c(C(=O)O)nnn1-c1nonc1N [Compound 59, Cn1cnnc1SCc1c(nnn1-c1nonc1N)C(O)=O] | 114.8% | 116% | 115% | 139% | 150% | 95% | 97% | 95% | 111% | 107% | 132% | 105% | 116% | 103% | 103% | 102% | 99% | 99% | 11.4% | 6% and 9% | viability at 15 µM (A2780 cells; [12]): 99%; Mean % Survival (A2780-ADR cells; [13]): 83.9%; % Survival (individual sample) (A2780-ADR cells; [14]): 98% and 96%; viability at 15 µM (A2780-ADR cells; [15]): 93.1%; viability at 15 µM (A2780-ADR cells; Homo sapiens, A2780 ADR, A2780-ADR cells, 15 µM compound alone, single samples (trials 1-3, samples 1-4), read-out: % Survival (individual sample)): 95%; Re-sensitization of DU145-TXR cells to PTX (reversal of MDR) (DU145-TXR cells): did not reverse MDR in DU145-TXR cells
